According to US11980774B2, “Illumination devices and related methods for phototherapeutic light treatments in the presence of vitamins” (priority 2021, dated 2024):

System: New York variant of SARS-CoV-2 (SARS-CoV-2 NY)
Assay: 425 nm light inhibition of SARS-CoV-2 NY in the presence of riboflavin in artificial saliva, virus titer
Type: cell-based
Settings: FIG. 2

## Cc1cc2nc3c(=O)[nH]c(=O)nc-3n(C[C@H](O)[C@H](O)[C@H](O)CO)c2cc1C [riboflavin]
10 μM RFN in artificial saliva, 425 nm light, beginning with doses as low as 3 J/cm^2
  change in SARS-CoV-2 NY viral load compared with the 0 μM RFN sample: notable decreases
10 μM RFN, 425 nm light 15 J/cm^2
  viral load of SARS-CoV-2 NY after treatment: below measurement background levels
